Experimental data: patent US20100166727A1, “S-Adenosylmethionine And Methylthioadensosine In Chemoprevention And Treatment Of Colon Polyps And Cancer” (UNIVERSITY OF SOUTHERN CALIFORNIA, priority 2007, published 2010)
“Also recorded” adds a separate entry of the source.

Legend:
colon cancer cells = settings: by lowering c-FLIP expression; cited from earlier work
[1] = test system: spermine synthase (SPM syn); assay: SPM syn expression by real-time PCR in HT-29 cells; assay type: cell-based, human
MAT2β [2] = assay: Colonic MAT2β mRNA in mice fed SAMe or MTA; assay type: in vivo; settings: 75 mg/kg/d MTA, 6 days
Protocol: FIG. 30. Effects of oral SAMe and MTA on colonic mRNA levels of MAT2A, MAT2 β, and […]. Mice were fed SAMe (150 to 450 mg/kg/d) or MTA (75 or 150 mg/kg/d) in drinking water for 6 days. Colonic mucosa was scrapped off and gene expression measured by real-time PCR.

MAT2A [3] = assay: MAT2A mRNA levels by real-time PCR in HT-29 cells; assay type: cell-based, human
Protocol: (§1) HT-29 and RKO cells were obtained from the Cell Culture Core of the USC Liver Disease Research Center and grown according to instructions provided by the American Type Culture Collection (ATCC, Rockville, Md.). Prior to treatment with growth factors, SAMe or MTA, medium was changed to 0.1% FBS overnight.
RNA interference (RNAi) experiments were performed using Lipofectamine RNAiMax (Invitrogen) according to the manufacturer's instructions. Small interfering RNA (siRNA) oligonucleotides for MAT2A and scrambled siRNA were synthesized by the USC Norris Comprehensive Cancer Center Microchemical Core Laboratory, and annealed to form duplexes. Stealth RNAi for MAT2A and Stealth RNAi negative control duplexes were synthesized by Invitrogen (Carlsbad, Calif.). The following siRNA sequences were used: si-MAT2A #1, 5′-[…]-3′ (sense) and 5′-[…]-3′ (antisense); si-control with scrambled sequence (negative control siRNA having no perfect matches to known human genes), 5′-[…]dTdT-3′ (sense) and 5% […]dTdT-3′ (antisense); stealth RNAi-MAT2A #5, 5′-[…]-3′ (sense) and 5′-[…]-3′ (antisense). […]
(§2) Total RNA was isolated by the EZgeno total RNA isolation kit (Genemega, San Giego, Calif.), and subjected to reverse transcription (RT) by using M-MLV Reverse transcriptase (Invitrogen). 2 μl of RT product was subjected to quantitative real-time PCR analysis. The primers and TaqMan probes for MAT2A, MAT2β and Universal PCR Master Mix were purchased from ABI (Foster City, Calif.). Hypoxanthine phosphoribosyl-transferase 1 (HPRT1) and ubiquitin C (UBC) were used as housekeeping genes (48). The thermal profile consisted of 1 cycle at 95° C. for 15 minutes followed by 40 cycles at 95° C. for 15 seconds and at 60° C. for 1 minute. The expression of MAT2A and MAT2β was checked by normalizing the Ct of MAT2A and MAT2β to that of the control housekeeping gene (HPRT1 or UBC) (49). The delta Ct obtained was used to find the relative expression of MAT genes according to the formula: Relative expression=2·^ΔCt, where ΔCt=ΔCt of MAT genes in colon cancer or treated cells—ΔCt of MAT genes in normal colon or control cells.

Bcl-xL = Bcl-xL mRNA level in HT-29 cells; assay type: cell-based, human; settings: MTA 1 mM, 6 hrs
Protocol: SAMe and MTA induce apoptosis in liver cancer cells by the mitochondrial pathway (14). […] In liver cancer cells, SAMe and MTA induced selectively expression of Bcl-xs, a pro-apoptotic protein (67). We examined whether the same occurs in HT-29 cells. After 6 hrs of MTA (1 mM) treatment, Bcl-xL mRNA level fell by 53% (47±4% of control, results are mean±SE from 4 experiments, p<0.0005). […] This makes these agents particularly attractive in targeting colon cancer cells.

c-FLIP = c-FLIP mRNA level by real-time PCR in HT-29 cells; assay type: cell-based, human; settings: SAMe 2 mM, MTA 1 mM, 6 hrs, mean±SE
NCM460 cells = assay: Toxicity and apoptosis in NCM460 normal colonic epithelial cells; assay type: cell-based, human
Protocol: In these experiments the total treatment duration was limited to 16 hrs to avoid the apoptotic effect. […] Apoptosis was measured by Hoechst staining or Annexin V and propidium iodide staining on flow cytometry.

HT-29 cells [4] = assay: Cellular SAMe and MTA levels in HT-29 cells; assay type: cell-based, human
Protocol: as §1
(§3) Cellular SAMe and MTA levels were measured (51) and polyamine levels were determined (52).

[5] = Tolerability of oral SAMe and MTA in mice; assay type: in vivo; settings: oral in drinking water, 6 days; weight gain and water consumption similar to controls
Excerpt: SAMe and MTA were made fresh daily. The amount of water intake, body weight, and animal behavior were closely monitored. After 6 days, animals were sacrificed, intestine was cut open along the longitudinal axis, and mucosa was stripped from the intestine (46). Mucosa was weighed and a portion processed for SAMe measurement as described below, the rest snap frozen for subsequent RNA extraction.

[6] = Stability of SAMe and MTA in culture medium without cells and in water; assay type: physicochemical; settings: culture medium at 37° C., MTA 1 mM
Protocol: FIG. 12. […] SAMe (A) and MTA (B) levels were measured in culture medium without cells with starting SAMe concentrations ranging from 1 to 5 mM and MTA concentration at 1 mM.
To test whether the mitogens-induce increase in. MAT2A is to provide increased SAMe necessary for polyamine synthesis in growing cells, SAMe and polyamine levels were measured following treatment of HT-29 cells with mitogens.

SPD syn = SPD syn expression by real-time PCR in HT-29 cells; assay type: cell-based, human
MAT2A [7] = assay: Intestinal MAT2A expression in mice given SAMe or MTA in drinking water; assay type: in vivo
Protocol: FIG. 30. Effects of oral SAMe and MTA on colonic mRNA levels of MAT2A, MAT2 β, and cFLIPL. Mice were fed SAMe (150 to 450 mg/kg/d) or MTA (75 or 150 mg/kg/d) in drinking water for 6 days. Colonic mucosa was scrapped off and gene expression measured by real-time PCR.
Three-month old male C57/B6 mice were fed ad libitum a standard diet (Harland Tekiad irradiated mouse diet 7912, Madison, Wis.), caged individually and had free access to water supplemented with SAMe ([…]), MTA (75 mg/kg/d), phosphate buffered saline (vehicle for SAMe) or DMSO (0.2%, vehicle for MTA) for 6 days. SAMe and MTA were made fresh daily. The amount of water intake, body weight, and animal behavior were closely monitored. After 6 days, animals were sacrificed, intestine was cut open along the longitudinal axis, and mucosa was stripped from the intestine (46). Mucosa was weighed and a portion processed for SAMe measurement as described below, the rest snap frozen for subsequent RNA extraction.
as §2

MAT2A [8] = assay: MAT2A expression in NCM460 cells; assay type: cell-based, human; settings: 5 mM SAMe or 1 mM MTA, 6 hrs
Protocol: as §2
NCM460 cell line was originally established in 1996 as the first non-malignant colonic epithelial cell line derived from the transverse colon (43). When first developed, cells formed both monolayer and in suspension, express villin and cytokeratin staining (43). […] The NCM460 cells in monolayer have features of transverse colon crypt cells (69). […]

[9] = test system: ornithine decarboxylase (ODC); assay: ODC expression by real-time PCR in HT-29 cells; assay type: cell-based, human
MAT2A [10] = assay: MAT2A mRNA levels by real-time PCR in RKO cells; assay type: cell-based, human; settings: RKO cells, growth factor 100 ng/ml
Protocol: as §1
RNA interference (RNAi) experiments were performed using Lipofectamine RNAiMax (Invitrogen) according to the manufacturer's instructions. Small interfering RNA (siRNA) oligonucleotides for MAT2A and scrambled siRNA were synthesized by the USC Norris Comprehensive Cancer Center Microchemical Core Laboratory, and annealed to form duplexes. Stealth RNAi for MAT2A and Stealth RNAi negative control duplexes were synthesized by Invitrogen (Carlsbad, Calif.). The following siRNA sequences were used: si-MAT2A #1, 5′-[…]-3′ (sense) and 5′-[…]-3′ (antisense); si-control with scrambled sequence (negative control siRNA having no perfect matches to known human genes), 5′-[…]dTdT-3′ (sense) and 5% […]dTdT-3′ (antisense); stealth RNAi-MAT2A #5, 5′-[…]-3′ (sense) and 5′-[…]-3′ (antisense). Transfection was allowed to proceed 72 hours before collection for different assays.
as §2

MAT2β [11] = assay: MAT2β mRNA levels by real-time PCR in HT-29 cells; assay type: cell-based, human; settings: HT29 cells, growth factor 100 ng/ml
Protocol: as §1, §2

HT-29 cells [12] = assay: Polyamine levels in HT-29 cells; assay type: cell-based, human; settings: 6 hrs, mitogen 100 ng/ml
Protocol: as §1, §3

MAT2β [13] = assay: MAT2β (total, V1, V2) mRNA levels by real-time PCR in RKO cells; assay type: cell-based, human; settings: growth factor 100 ng/ml
Protocol: as §1
as §2, with “The delta Ct obtained was used to find the relative expression of MAT genes according to the formula: Relative expression=2·^ΔCt, where ΔCt=ΔCt of MAT genes in colon cancer or treated cells—ΔCt of MAT genes in normal colon or control cells.” left out
To better understand functional differences between the two MAT2β variants, we created vectors expressing either V1 or V2 using the mammalian expression vector pcDNA3.1D/V5-His/TOPO vector (Invitrogen). […] Cell growth was measured by 3H-thymidine incorporation into DNA. […]

[14] = 75 mg/kg/d in drinking water, six days

Compound: O=c1[nH]cc(F)c(=O)[nH]1 [5-FU, 5-fluorouracil]
- TRAIL-induced apoptosis (colon cancer cells): sensitize colon cancer cells to TRAIL-induced apoptosis

Compound: CSC[C@H]1O[C@@H](n2cnc3c(N)ncnc32)[C@H](O)[C@@H]1O [MTA, methylthioadenosine]
- lowering of spermine synthase mRNA level ([1]; MTA treatment for 6 hrs): 30%
- inhibition of MAT2β expression (MAT2β [2]): 60%
- reduction of baseline expression of MAT2A (MAT2A [3]; SAMe 5 mM or MTA 1 mM, 6 hrs, HT29 cells): 60%
- fall of Bcl-xL mRNA level (Bcl-xL): 53%
- Bcl-xL mRNA level (Bcl-xL; mean±SE from 4 experiments): 47±4 % of control
- c-FLIP mRNA level (c-FLIP): 47±4 % of control
- toxicity in NCM460 cells (NCM460 cells; SAMe 0.2 to 2 mM, MTA 0.2 to 5 mM): did not cause any toxicity
- apoptosis in NCM460 cells (NCM460 cells; SAMe up to 2 mM, MTA up to 5 mM): do not cause apoptosis
- MTA level (HT-29 cells [4]; 6 hrs, MTA 1 mM): 0.652 ± 0.123 nmol/mg protein
- SAMe level (HT-29 cells [4]; 6 hrs, MTA 1 mM): 0.81 ± 0.09 nmol/mg protein
- MTA level (HT-29 cells [4]; 16 hrs, MTA 1 mM): 0.689 ± 0.108 nmol/mg protein
- SAMe level (HT-29 cells [4]; 16 hrs, MTA 1 mM): 0.54 ± 0.01 nmol/mg protein
- tolerability / toxicity [5]: well tolerated; also recorded: no apparent toxicity
- stability [6]: highly stable; also recorded: no change in 24 hrs
- lowering of spermidine synthase mRNA level (SPD syn; MTA treatment for 6 hrs): 30%
- MAT2A expression, colon (MAT2A [7]; [14]): 87 ± 20 % of control MAT2A mRNA levels
- MAT2A expression, proximal small intestine (MAT2A [7]; [14]): 82 ± 2 % of control MAT2A mRNA levels
- inhibition in colonic MAT2A mRNA level (MAT2A [7]; MTA 75 mg/kg/d, 6 days): 85%
- decrease of MAT2A expression in proximal small intestine (MAT2A [7]; SAMe 150 mg/kg/d, MTA 75 mg/kg/d, six days): 20%
- reduction of MAT2A expression (MAT2A [8]): 40%
- lowering of ornithine decarboxylase (ODC) mRNA level ([9]; MTA treatment for 6 hrs): 30%

Compound: Leptin: growth factor implicated in colon cancer growth and invasion
- MAT2A mRNA levels after growth factor (MAT2A [10]): near doubling
- MAT2β expression after growth factor (MAT2β [11]): not affected
- SPM syn expression ([1]; 6 hrs, mitogen 100 ng/ml): 1.0 ± 0.05 fold of control
- MAT2A mRNA levels after growth factor (MAT2A [3]; HT-29 cells, growth factor 100 ng/ml): near doubling
- MTA level (HT-29 cells [4]; 6 hrs, mitogen 100 ng/ml): 0.058 ± 0.010 nmol/mg protein
- SAMe level (HT-29 cells [4]; 6 hrs, mitogen 100 ng/ml): 0.48 ± 0.04 nmol/mg protein
- MTA level (HT-29 cells [4]; 16 hrs, mitogen 100 ng/ml): 0.064 ± 0.015 nmol/mg protein
- SAMe level (HT-29 cells [4]; 16 hrs, mitogen 100 ng/ml): 0.63 ± 0.02 nmol/mg protein
- Putrescine (HT-29 cells [12]): 0.27 ± 0.02 nmol/mg protein
- Spermidine (HT-29 cells [12]): 2.62 ± 0.02 nmol/mg protein
- Spermine (HT-29 cells [12]): 14.62 ± 2.70 nmol/mg protein
- SPD syn expression (SPD syn; 6 hrs, mitogen 100 ng/ml): 2.3 ± 0.25 fold of control
- MAT2β expression after growth factor (MAT2β [13]): not affected
- ODC expression ([9]; 6 hrs, mitogen 100 ng/ml): 1.6 ± 0.09 fold of control
